According to patent US12180193B2, “Accelerating fibrosarcoma protein degrading compounds and associated methods of use” (Arvinas Operations, Inc., priority 2020, dated 2024):

Experiments:
BRAF V600E = biological target: T1, BRAF V600E (Homo sapiens, UniProt P15056, V600E); assay: Cellular assay of target protein degradation, T-Rex 293 cells stably transfected with HA-BRAF_V600E (HA immunofluorescence, high content imaging); type: cell-based; conditions: T-Rex 293 HA-BRAF V600E; for DC50: half maximal degradation, read-out: BRaf V600E DC50; for Dmax: maximum degradation observed
T1 construct: expressed in transfected cells
T1 sequence (P15056 whole entry V600E): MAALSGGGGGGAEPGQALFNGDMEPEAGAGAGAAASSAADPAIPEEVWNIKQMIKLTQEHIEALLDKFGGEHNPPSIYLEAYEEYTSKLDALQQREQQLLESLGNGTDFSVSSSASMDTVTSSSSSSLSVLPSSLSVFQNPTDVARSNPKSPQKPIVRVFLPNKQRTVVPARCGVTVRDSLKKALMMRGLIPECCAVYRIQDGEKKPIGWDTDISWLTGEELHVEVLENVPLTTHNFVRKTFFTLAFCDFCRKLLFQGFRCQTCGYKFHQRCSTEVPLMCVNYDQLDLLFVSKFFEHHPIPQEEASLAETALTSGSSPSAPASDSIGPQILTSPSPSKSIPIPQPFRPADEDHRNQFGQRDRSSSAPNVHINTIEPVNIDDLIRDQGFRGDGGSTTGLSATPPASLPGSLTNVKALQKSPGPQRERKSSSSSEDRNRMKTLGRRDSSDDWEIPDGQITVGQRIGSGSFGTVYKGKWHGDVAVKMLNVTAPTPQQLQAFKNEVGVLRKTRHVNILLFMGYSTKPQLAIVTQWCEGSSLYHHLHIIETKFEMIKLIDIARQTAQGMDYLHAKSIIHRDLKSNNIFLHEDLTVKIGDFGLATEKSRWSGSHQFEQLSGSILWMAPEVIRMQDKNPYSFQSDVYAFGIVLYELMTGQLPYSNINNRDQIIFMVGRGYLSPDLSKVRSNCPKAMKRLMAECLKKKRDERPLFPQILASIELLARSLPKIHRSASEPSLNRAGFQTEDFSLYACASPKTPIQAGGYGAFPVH
Procedure, shortened: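 Cells are plated with 1 ng/mL doxycycline and grown 24 h. Compound is then added (final 1 μM–0.1 nM, 0.1% DMSO) for another 24 h at 37 °C, followed by fixing, HA immunostaining and imaging to obtain DC50 and Dmax.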

BRAF G466V = biological target: T2, BRAF G466V (Homo sapiens, UniProt P15056, G466V); assay: Cellular assay of target protein degradation, T-Rex 293 cells stably transfected with HA-BRAF G466V (HA immunofluorescence, high content imaging); type: cell-based; conditions: T-Rex 293 HA-BRAF G466V; for DC50: half maximal degradation, read-out: BRaf G466V DC50; for Dmax: maximum degradation observed
T2 construct: expressed in transfected cells
T2 sequence (P15056 whole entry G466V): as the sequence (P15056 whole entry V600E) above, with G466V, E600V counted along it
Procedure, shortened: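 Read-out is HA immunofluorescence by high content imaging, with Hoechst and phalloidin co-staining, giving DC50 and Dmax as a percentage of control. Compound exposure lasts 24 hours at 37° C over 30 nM to 3 pM in 0.1% DMSO, with doxycycline-induced HA-BRAF G466V.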

| DC50 (BRAF V600E) | Dmax (BRAF V600E) | DC50 (BRAF G466V) | Dmax (BRAF G466V) | Compound |
| --- | --- | --- | --- | --- |
| 5 to 50 nM | 35 to 70% | 1 to 10 nM | 35 to 70% | O=C1CC[C@H](NC(=O)c2ccc(N3CCN(CCN4CCN(c5ccc(-c6cnc7[nH]cc(C(=O)c8c(F)ccc(NS(=O)(=O)N9CC[C@@H](F)C9)c8F)c7c6)cc5)CC4)CC3)cc2F)C(=O)N1 [Compound 377, 4-(4-{2-[4-(4-{3-[2,6-difluoro-3-({[(3R)-3-fluoropyrrolidin-1-yl]sulfonyl}amino)benzoyl]-1H-pyrrolo[2,3-b]pyridin-5-yl}phenyl)piperazin-1-yl]ethyl}piperazin-1-yl)-N-[(3S)-2,6-dioxopiperidin-3-yl]-2-fluorobenzamide] |
| 5 to 50 nM | 35 to 70% | 1 to 10 nM | > 70% | O=C1CCC(N2Cc3cc(N4CCN(CC5CN(c6ncc(-c7cnc8[nH]cc(C(=O)c9c(F)ccc(NS(=O)(=O)N%10CC[C@@H](F)C%10)c9F)c8c7)cn6)C5)CC4)ccc3C2=O)C(=O)N1 (stereo partly drawn) [Compound 91, (3R)-N-[3-(5-{2-[3-({4-[2-(2,6-dioxopiperidin-3-yl)-1-oxo-2,3-dihydro-1H-isoindol-5-yl]piperazin-1-yl}methyl)azetidin-1-yl]pyrimidin-5-yl}-1H-pyrrolo[2,3-b]pyridine-3-carbonyl)-2,4-difluorophenyl]-3-fluoropyrrolidine-1-sulfonamide] |
| 5 to 50 nM | 35 to 70% | 1 to 10 nM | > 70% | O=C1CC[C@H](NC(=O)N2CCCc3c(N4CCN(CC5CCN(c6ccc(-c7cnc8[nH]cc(C(=O)c9c(F)ccc(NS(=O)(=O)N%10CC[C@@H](F)C%10)c9F)c8c7)cc6)CC5)CC4)ccnc32)C(=O)N1 [Compound 369, 5-(4-{[1-(4-{3-[2,6-difluoro-3-({[(3R)-3-fluoropyrrolidin-1-yl]sulfonyl}amino)benzoyl]-1H-pyrrolo[2,3-b]pyridin-5-yl}phenyl)piperidin-4-yl]methyl}piperazin-1-yl)-N-[(3S)-2,6-dioxopiperidin-3-yl]-1,2,3,4-tetrahydro-1,8-naphthyridine-1-carboxamide] |
| 5 to 50 nM | 35 to 70% | < 1 nM | > 70% | O=C1CC[C@H](N2Cc3cc(N4CCC(CN5CC6(C5)CN(c5ccc(-c7cnc8[nH]cc(C(=O)c9c(F)ccc(NS(=O)(=O)N%10CC[C@@H](F)C%10)c9F)c8c7)cc5)C6)CC4)c(F)cc3C2=O)C(=O)N1 [Compound 55, (3R)-N-{3-[5-(4-{6-[(1-{2-[(3S)-2,6-dioxopiperidin-3-yl]-6-fluoro-1-oxo-2,3-dihydro-1H-isoindol-5-yl}piperidin-4-yl)methyl]-2,6-diazaspiro[3.3]heptan-2-yl}phenyl)-1H-pyrrolo[2,3-b]pyridine-3-carbonyl]-2,4-difluorophenyl}-3-fluoropyrrolidine-1-sulfonamide] |
| 5 to 50 nM | 35 to 70% | < 1 nM | 35 to 70% | COc1cc(N2CC3(C2)CN(CC2CCN(c4ccc(-c5cnc6[nH]cc(C(=O)c7c(F)ccc(NS(=O)(=O)N8CC[C@@H](F)C8)c7F)c6c5)cc4)CC2)[C@@H]3C)cc2c1C(=O)N(C1CCC(=O)NC1=O)C2 (stereo partly drawn) [Compound 20, (3R)-N-(3-{5-[4-(4-{[(1R)-6-[2-(2,6-dioxopiperidin-3-yl)-7-methoxy-1-oxo-2,3-dihydro-1H-isoindol-5-yl]-1-methyl-2,6-diazaspiro[3.3]heptan-2-yl]methyl}piperidin-1-yl)phenyl]-1H-pyrrolo[2,3-b]pyridine-3-carbonyl}-2,4-difluorophenyl)-3-fluoropyrrolidine-1-sulfonamide] |
| 5 to 50 nM | 35 to 70% | < 1 nM | > 70% | COc1cc(-c2cnc3[nH]cc(C(=O)c4c(F)ccc(NS(=O)(=O)N5CC[C@@H](F)C5)c4F)c3c2)ccc1N1CCC(CN2CCC(c3ccc4c(c3)CN([C@H]3CCC(=O)NC3=O)C4=O)CC2)CC1 [Compound 256, (3R)-N-{3-[5-(4-{4-[(4-{2-[(3S)-2,6-dioxopiperidin-3-yl]-1-oxo-2,3-dihydro-1H-isoindol-5-yl}piperidin-1-yl)methyl]piperidin-1-yl}-3-methoxyphenyl)-1H-pyrrolo[2,3-b]pyridine-3-carbonyl]-2,4-difluorophenyl}-3-fluoropyrrolidine-1-sulfonamide] |
| 5 to 50 nM | 35 to 70% | 1 to 10 nM | > 70% | O=C1CCC(N2Cc3cc(N4CCC(CN5CCN(Cc6ccc(-c7cnc8[nH]cc(C(=O)c9c(F)ccc(NS(=O)(=O)N%10CC[C@@H](F)C%10)c9F)c8c7)cc6)CC5)CC4)ccc3C2=O)C(=O)N1 (stereo partly drawn) [Compound 146, (3R)-N-{3-[5-(4-{[4-({1-[2-(2,6-dioxopiperidin-3-yl)-1-oxo-2,3-dihydro-1H-isoindol-5-yl]piperidin-4-yl}methyl)piperazin-1-yl]methyl}phenyl)-1H-pyrrolo[2,3-b]pyridine-3-carbonyl]-2,4-difluorophenyl}-3-fluoropyrrolidine-1-sulfonamide] |
| < 5 nM | 35 to 70% | < 1 nM | 35 to 70% | O=C1CC[C@@H](N2Cc3cc(N4CCC(CN5CCC6(CCN(c7ccc(-c8cnc9[nH]cc(C(=O)c%10c(F)ccc(NS(=O)(=O)N%11CC[C@@H](F)C%11)c%10F)c9c8)cc7F)CC6)C5)CC4)ccc3C2=O)C(=O)N1 [Compound 259, (3R)-N-{3-[5-(4-{2-[(1-{2-[(3R)-2,6-dioxopiperidin-3-yl]-1-oxo-2,3-dihydro-1H-isoindol-5-yl}piperidin-4-yl)methyl]-2,8-diazaspiro[4.5]decan-8-yl}-3-fluorophenyl)-1H-pyrrolo[2,3-b]pyridine-3-carbonyl]-2,4-difluorophenyl}-3-fluoropyrrolidine-1-sulfonamide] |
| 5 to 50 nM | 35 to 70% | 1 to 10 nM | > 70% | O=C1CC[C@H](N2Cc3cc(CC[C@H](O)CN4CC5(C4)CN(c4ccc(-c6cnc7[nH]cc(C(=O)c8c(F)ccc(NS(=O)(=O)N9CC[C@@H](F)C9)c8F)c7c6)cc4)C5)ccc3C2=O)C(=O)N1 [Compound 172, (3R)-N-{3-[5-(4-{6-[(2S)-4-{2-[(3S)-2,6-dioxopiperidin-3-yl]-1-oxo-2,3-dihydro-1H-isoindol-5-yl}-2-hydroxybutyl]-2,6-diazaspiro[3.3]heptan-2-yl}phenyl)-1H-pyrrolo[2,3-b]pyridine-3-carbonyl]-2,4-difluorophenyl}-3-fluoropyrrolidine-1-sulfonamide] |
| 5 to 50 nM | 35 to 70% | < 1 nM | > 70% | CCCS(=O)(=O)Nc1ccc(F)c(C(=O)c2c[nH]c3ncc(-c4ccc(N5CC6(CN(CC7CCN(c8cc9c(c(OC)c8)C(=O)N([C@H]8CCC(=O)NC8=O)C9)CC7)C6)C5)cc4)cc23)c1F [Compound 237, N-{3-[5-(4-{6-[(1-{2-[(3S)-2,6-dioxopiperidin-3-yl]-7-methoxy-1-oxo-2,3-dihydro-1H-isoindol-5-yl}piperidin-4-yl)methyl]-2,6-diazaspiro[3.3]heptan-2-yl}phenyl)-1H-pyrrolo[2,3-b]pyridine-3-carbonyl]-2,4-difluorophenyl}propane-1-sulfonamide] |
